Test system: diaphorase
Test: fluorescently labeled diaphorase binding to peptide array with or without excess FAD
Conditions: for 1 microM FAD (array fluorescence of bound diaphorase) / 1 micro no FAD (array fluorescence of bound diaphorase): 1 micromolar labeled diaphorase; for 1 microM FAD (array fluorescence of bound diaphorase) / 10 microM FAD (array fluorescence of bound diaphorase): excess FAD present; for 1 microM FAD (array fluorescence of bound diaphorase) / 1 micro no FAD (array fluorescence of bound diaphorase) / 10 microM FAD (array fluorescence of bound diaphorase) / 10 microM no FAD (array fluorescence of bound diaphorase): 65535 is detector saturation; for 10 microM FAD (array fluorescence of bound diaphorase) / 10 microM no FAD (array fluorescence of bound diaphorase): 10 micromolar labeled diaphorase; for 1 microM noFAD/FAD / 10 microM noFAD/FAD: ratio of binding without FAD to binding with FAD; for 1 microM noFAD/FAD / Meas. ratio: 1 micromolar diaphorase; for 10 microM noFAD/FAD: 10 micromolar diaphorase; for Meas. ratio: ratio without/with FAD calculated from measured binding values
Procedure: Measurements were performed in which diaphorase was bound to an array of about 126,000 unique sequences. The sequences were chosen simply to cover sequence space. 16 of the natural 20 amino acids were used to make up these sequences with C, I, M and T omitted. The diaphorase was fluorescently labeled and each peptide sequence feature was scanned and fluorescence recorded on the array. Diaphorase bound tightly to some peptides and not at all to others. Two different concentrations of diaphorase were used, 1 and 10 micromolar, and the diaphorase was either bound in the presence of excess FAD or not. […] Indeed the Pearson correlation coefficient between w/ and w/o FAD was >0.97, which actually speaks to the reproducibility of this dataset. However, there are some differences as shown on the scatter plot of FIG. 1. When one takes a ratio of the binding without FAD and the binding with FAD, one finds the following top 30 ratios (Table 1): Note that all these sequences end with a GSG linker sequence. Because there are two concentrations, one can easily check for consistency. Note that 65535 is detector saturation, so one has to ignore those values. For this reason, the lower concentration is used most of the time. […] It appears that this was some kind of error and was ignored in subsequent analysis. A similar conclusion can be made with the 7th highest value. Looking at the sequences, RW or at least R or K followed by a nonpolar or aromatic amino acid at the N-terminus. This is interesting as FAD is negatively charged, though the adenine in FAD looks a bit like tryptophan (see FIG. 2).

Sequence	1 microM FAD (array fluorescence of bound diaphorase)	1 micro no FAD (array fluorescence of bound diaphorase)	10 microM FAD (array fluorescence of bound diaphorase)	10 microM no FAD (array fluorescence of bound diaphorase)	1 microM noFAD/FAD	10 microM noFAD/FAD	Meas. ratio
RWSFPAKGGSG [array peptide with C-terminal GSG linker]	3614	10002.75	51221.25	65535	2.768	1.279	2.77
RAQYAQYLFGGSG [array peptide with C-terminal GSG linker]	3162	8721.5	55433.5	65535	2.758	1.182	2.76
PRFNWKPYGGSG [array peptide with C-terminal GSG linker]							2.44
YRRFPYFPGGSG [array peptide with C-terminal GSG linker]							1.60
WRPFWKNLGGSG [array peptide with C-terminal GSG linker]							2.18
VVQALFDGSG [array peptide with C-terminal GSG linker]	2304.25	1467.5	21180.25	9478.25	0.6369	0.4475	0.64
RWKYQKFNGGSG [array peptide with C-terminal GSG linker]	3860.75	10165	46173.5	61301.5	2.633	1.328	2.63
YRFAQYKGQKDGSG [array peptide with C-terminal GSG linker]	1604.25	4467.75	19933.75	56915	2.785	2.855	2.78
KPLAVQKVGSG (KPLAVQKVFGSG) [array peptide with C-terminal GSG linker]	3707.5	34797.5	36814	46161	9.386	1.254	9.39
FNKVLEYKWLFEG							0.73
WRSVYVPNGGSG [array peptide with C-terminal GSG linker]							2.35
YRNAAWFSGGSG [array peptide with C-terminal GSG linker]	2926	8372.25	43282	65535	2.861	1.514	2.86
VERASYNLDGSG [array peptide with C-terminal GSG linker]	2238	759	3374	2900.5	0.3391	0.8597	0.34
PRYSGQYGGSG [array peptide with C-terminal GSG linker]	3234.25	8432.75	45157.75	65535	2.607	1.451	2.61
RVLPYHGWKWFSG							2.45
ARWQQYKFGGSG [array peptide with C-terminal GSG linker]							2.18
EGFGYLFAHVGGS							0.78
SVLEGYQAVFGGSG [array peptide with C-terminal GSG linker]	2664.5	1341.5	21517.25	6065.25	0.5035	0.2819	0.50
RYPWNKLYKFDGSG [array peptide with C-terminal GSG linker]	3483.25	9735.75	53014.5	65535	2.795	1.236	2.80
AWVELEYQYVFEG							0.74
YRWGAKHYGGSG [array peptide with C-terminal GSG linker]							2.06
YRLNLKHPVGGSG [array peptide with C-terminal GSG linker]	4146.5	12652.75	56689	65535	3.051	1.156	3.05
VKDGNKHYWRVSGSG (VKDGANKHYWRVSGSG) [array peptide with C-terminal GSG linker]	12347.25	2221	17803.5	20355.75	0.1799	1.143	0.18
YSALFGLQEDGSG [array peptide with C-terminal GSG linker]	2100.75	1225.5	16872.25	8529	0.5834	0.5055	0.58
VSWVFGLGHEGGS							0.71
FYNFGYQDLEDGS							0.75
LAKQNRVEDGSS (LAKQNRVEDGSG) [array peptide with C-terminal GSG linker]	1435	770.5	3699	2948.5	0.5369	0.7971	0.54
FQFGKVVSDGSG [array peptide with C-terminal GSG linker]	2470	1574.5	20187.75	12735.5	0.6374	0.6309	0.64

From patent US20190064177A1, “INCORPORATING COMPETITIVE BINDING INFORMATION INTO MOLECULAR ARRAY ANALYSIS TO GENERATE FUNCTION NETWORKS OF INTERACTIONS” (ARIZONA BOARD OF REGENTS ON BEHALF OF ARIZONA STATE …, priority 2017, published 2019)
